According to patent publication US9375005B2, “5-halogenopyrazole indanyl carboxamides” (BAYER CROPSCIENCE AG, priority 2012, dated 2016):

Assays:
[1] = tested on: Sphaerotheca fuliginea; assay: In vivo preventive test on Sphaerotheca fuliginea (powdery mildew on cucurbits); conditions: dose 500 ppm; gherkin plants sprayed 24 h before contamination; grading 12 days after contamination
Method: Gherkin plants (“Vert petit de Paris” variety), sown in starter cups on a 50/50 peat soil-pozzolana substrate and grown at 24° C., are treated at the Z11 cotyledon stage by spraying with the active ingredient prepared as described above. Plants, used as controls, are treated with the mixture of acetone/tween/DMSO/water not containing the active material. After 24 hours, the plants are contaminated by spraying the cotyledons with an aqueous suspension of Sphaerotheca fuliginea spores (100 000 spores per ml). The spores are collected from infected plants. The contaminated to gherkin plants are incubated at about 20° C. and at 70-80% relative humidity. Grading (% of efficacy) is carried out 12 days after the contamination, in comparison with the control plants.

[2] = tested on: Pyrenophora teres; assay: In vivo preventive test on Pyrenophora teres (net blotch on barley); conditions: dose 500 ppm; barley plants sprayed 24 h before contamination; grading 14 days after contamination
Method: Barley plants (“Plaisant” variety), sown in starter cups on a 50/50 peat soil-pozzolana substrate and grown at 22° C., are treated at the 1-leaf stage (10 cm height) by spraying with the active ingredient prepared as described above. Plants, used as controls, are treated with the mixture of acetone/tween/DMSO/water not containing the active material. After 24 hours, the plants are contaminated by spraying the leaves with an aqueous suspension of Pyrenophora teres spores (12 000 spores per ml). The spores are collected from a 12-day-old culture. […] Grading (% of efficacy) is carried out 14 days after the contamination, in comparison with the control plants.

[3] = Measurement of log P values by HPLC on reversed phase columns (EEC directive 79/831 Annex V.A8); type: physicochemical; conditions: method marked [a]
[4] = tested on: Alternaria brassicae; assay: In vivo preventive test on Alternaria brassicae (leaf spot on radish); conditions: dose 500 ppm; radish plants sprayed 24 h before contamination; grading 6 days after contamination vs control plants
Method: Radish plants (“Pernod Clair” variety), sown in starter cups on a 50/50 peat soil-pozzolana substrate and grown at 17° C., are treated at the cotyledon stage by spraying with the active ingredient prepared as described above. Plants, used as controls, are treated with the mixture of acetone/tween/DMSO/water not containing the active material. After 24 hours, the plants are contaminated by spraying the cotyledons with an aqueous suspension of Alternaria brassicae spores (50 000 spores per ml). The spores are collected from a 15-day-old culture. […] Grading (% of efficacy) is carried out 6 days after the contamination, in comparison with the control plants.

[5] = tested on: Puccinia recondita; assay: In vivo preventive test on Puccinia recondita (brown rust on wheat); conditions: dose 500 ppm; wheat plants sprayed 24 h before contamination; grading 12 days after contamination
Method: Plants, used as controls, are treated with the mixture of acetone/tween/DMSO/water not containing the active material. After 24 hours, the plants are contaminated by spraying the leaves with an aqueous suspension of Puccinia recondita spores (100 000 spores per ml). […] Grading (% of efficacy) is carried out 12 days after the contamination, in comparison with the control plants.

[6] = tested on: Uromyces appendiculatus; assay: In vivo preventive test on Uromyces appendiculatus (bean rust); conditions: dose 500 ppm; bean plants sprayed 24 h before contamination; grading 11 days after contamination
Method: Bean plants (“Saxa” variety), sown in starter cups on a 50/50 peat soil-pozzolana substrate and grown at 24° C., are treated at the 2-leaf stage (9 cm height) by spraying with the active ingredient prepared as described above. Plants, used as controls, are treated with the mixture of acetone/tween/DMSO/water not containing the active material. After 24 hours, the plants are contaminated by spraying the leaves with an aqueous suspension of Uromyces appendiculatus spores (150 000 spores per ml). […] Grading (% of efficacy) is carried out 11 days after the contamination, in comparison with the control plants.

[7] = tested on: Septoria tritici; assay: In vivo preventive test on Septoria tritici (leaf spot on wheat); conditions: dose 500 ppm; wheat plants sprayed 24 h before contamination; grading 24 days after contamination
Method: Wheat plants (“Scipion” variety), sown in starter cups on a 50/50 peat soil-pozzolana substrate and grown at 22° C., are treated at the 1-leaf stage (10 cm height) by spraying with the active ingredient prepared as described above. Plants, used as controls, are treated with the mixture of acetone/tween/DMSO/water not containing the active material. After 24 hours, the plants are contaminated by spraying the leaves with an aqueous suspension of cryopreserved Septoria tritici spores (500 000 spores per ml). […] Grading (% of efficacy) is carried out 24 days after the contamination, in comparison with the control plants.

Row | SMILES | logP [3] | Eff. % [1] | Eff. % [2] | Eff. % [4] | Eff. % [5] | Eff. % [6] | Eff. % [7]
1 | CC(C)C1Cc2c(NC(=O)c3c(C(F)F)nn(C)c3Cl)cccc2C1(C)C (stereo not shown) [Example 6] | 4.95[a] | 100% |  | 78% | 100% | 100% | 
2 | CCCON=C1CCc2c(NC(=O)c3c(C(F)F)nn(C)c3Cl)cccc21 [Example 23] | 3.76[a] | 70% |  |  |  | 82% | 90%
3 | CCCCON=C1CCc2c(NC(=O)c3c(C(F)F)nn(C)c3F)cccc21 [Example 24] | 3.96[a] |  |  |  |  |  | 80%
4 | CCC1Cc2cccc(NC(=O)c3c(C(F)F)nn(C)c3Cl)c2C1 (stereo not shown) [Example 30] | 4.01[a] |  | 83% |  | 100% | 100% | 70%
5 | CC1CCc2cccc(NC(=O)c3c(C(F)F)nn(C)c3Cl)c21 (stereo not shown) [Example 31] | 3.44[a] |  |  |  | 100% | 100% | 80%
6 | CC1CC(C)(C)c2c(F)ccc(NC(=O)c3c(C(F)F)nn(C)c3Cl)c21 (stereo not shown) [Example 37] | 4.11[a] | 100% | 75% | 97% |  | 100% | 
7 | CC(C)C1Cc2cccc(NC(=O)c3c(C(F)F)nn(C)c3Cl)c2C1C (stereo not shown) [Example 47] | 4.68[a] |  |  |  | 83% | 86% | 80%
8 | CC(C)C1Cc2cccc(NC(=O)c3c(C(F)F)nn(C)c3Cl)c2C1C (stereo not shown) [Example 48] | 4.49[a] | 100% |  |  | 100% | 100% | 80%

The next lines start with results.

Row | logP [3] | SMILES | Eff. % [1] | Eff. % [2] | Eff. % [4] | Eff. % [5] | Eff. % [6] | Eff. % [7]
9 | 4.04[a] | CCC1(C)CCc2c(NC(=O)c3c(C(F)F)nn(C)c3Cl)cccc21 (single isomer, unassigned) [Example 53] | 98% | 80% | 79% | 100% | 100% | 
10 | 3.85[a] | CC1CC2(CC2)c2cccc(NC(=S)c3c(C(F)F)nn(C)c3Cl)c21 (stereo not shown) [Example 49] |  | 83% |  | 94% | 100% | 71%
11 | 4.68[a] | CC(C)C1Cc2cccc(NC(=O)c3c(C(F)F)nn(C)c3Cl)c2C1C (stereo not shown) [Example 56] |  |  |  | 83% | 86% | 80%
12 | 5.22[a] | CC1CC(CC(C)(C)C)c2cccc(NC(=O)c3c(C(F)F)nn(C)c3Cl)c21 (stereo not shown) [Example 69] | 100% |  |  | 98% | 100% | 71%
13 | 3.64[a] | Cn1nc(C(F)F)c(C(=O)Nc2cccc3c2CC(C)(C)C3)c1F [Example 72] | 100% |  |  | 98% | 100% | 71%
14 | 4.51[a] | Cn1nc(C(F)F)c(C(=S)Nc2cccc3c2CCC3C(C)(C)C)c1F (stereo not shown) [Example 75] | 100% |  |  | 100% | 100% | 79%
15 | 5.08[a] | CC1CC(CC(C)(C)C)c2cccc(NC(=S)c3c(C(F)F)nn(C)c3F)c21 (stereo not shown) [Example 87] | 98% |  | 75% | 98% | 100% | 
16 | 3.67[a] | CCCON=C1CC(C)c2c(NC(=O)c3c(C(F)F)nn(C)c3F)cccc21 (stereo not shown) [Example 91] |  | 83% | 86% | 94% | 100% | 
17 | 4.92[a] | CCC1(CC)Cc2c(NC(=O)c3c(C(F)F)nn(C)c3Cl)cccc2C1C (stereo not shown) [Example 93] | 98% |  |  | 98% | 100% | 75%
18 | 4.39[a] | Cn1nc(C(F)F)c(C(=O)Nc2cccc3c2CCC3C(C)(C)C)c1F (stereo not shown) [Example 97] | 89% | 83% |  | 98% | 100% | 79%
